Assay results taken from patent US20210299038A1, “METHOD TO PREVENT AND TREAT OCULAR CATARACT BY CALCIUM CHANNEL BLOCKERS, ANGIOTENSIN CONVERTING ENZYME INHIBITORS, AND ANGIOTENSIN RECEPTOR BLOCKERS” (priority 2018, published 2021).

Tests used:
[1] = tested on: cataract opacities; conditions: 3119 participants aged 55 to 80; after 10 years of supplementation; cited from earlier work
[2] = tested on: ocular cataract; experiment: Treatment of a patient diagnosed with ocular cataract, one eye treated, other eye untreated; format: in vivo, human
Text: A patient is diagnosed with ocular cataract. A composition comprising the calcium channel blocker nifedipine is directly applied to the vitreous surface of one eye while the other eye is left untreated. […] A patient is diagnosed with ocular cataract. A composition comprising the ACE inhibitor enalapril is directly applied to the vitreous surface of one eye while the other eye is left untreated. […] A patient is diagnosed with ocular cataract. A composition comprising the angiotensin receptor blocker losartan is directly applied to the vitreous surface of one eye while the other eye is left untreated. […] A patient is diagnosed with ocular cataract. A composition comprising the calcium channel blocker nifedipine is applied to the eye by intravitreal or intraocular injection while the other eye is left untreated. […] A patient is diagnosed with ocular cataract. A composition comprising the ACE inhibitor enalapril is applied to the eye by intravitreal or intraocular injection while the other eye is left untreated. […] A patient is diagnosed with ocular cataract. A composition comprising the angiotensin receptor blocker losartan is applied to the eye by intravitreal or intraocular injection while the other eye is left untreated.

[3] = tested on: ocular cataract; experiment: Prevention of recurrence of ocular cataract in a successfully treated patient, one eye treated, other eye untreated; format: in vivo, human; conditions: untreated eye shows recurrence
Text: A composition comprising the calcium channel blocker nifedipine is directly applied to the vitreous surface of one eye while the other eye is left untreated. […] A composition comprising the ACE inhibitor enalapril is directly applied to the vitreous surface of one eye while the other eye is left untreated. […] A composition comprising the angiotensin receptor blocker losartan is directly applied to the vitreous surface of one eye while the other eye is left untreated. […] A composition comprising the calcium channel blocker nifedipine is applied to the eye by intravitreal or intraocular injection while the other eye is left untreated. […] A composition comprising the ACE inhibitor enalapril is applied to the eye by intravitreal or intraocular injection while the other eye is left untreated. […] A composition comprising the angiotensin receptor blocker losartan is applied to the eye by intravitreal or intraocular injection while the other eye is left untreated.

[4] = composition applied by intravitreal or intraocular injection
[5] = composition directly applied to the vitreous surface of one eye

Compound: CC1=C(/C=C/C(C)=C/C=C/C(C)=C/C=C/C=C(C)/C=C/C=C(C)/C=C/C2=C(C)C[C@@H](O)CC2(C)C)C(C)(C)C[C@H](O)C1 [zeaxanthin]
- nuclear cataract score opacities [1]: No reduction

Compound: CC1=C[C@H](O)CC(C)(C)[C@H]1/C=C/C(C)=C/C=C/C(C)=C/C=C/C=C(C)/C=C/C=C(C)/C=C/C1=C(C)C[C@@H](O)CC1(C)C [lutein]
- nuclear cataract score opacities [1]: No reduction

Compound: CCCCc1nc(Cl)c(CO)n1Cc1ccc(-c2ccccc2-c2nn[nH]n2)cc1 [losartan]
- symptoms of ocular cataract in treated eye versus untreated eye [2, 4]: reduced symptoms of ocular cataract
- symptoms of ocular cataract in treated eye versus untreated eye [2, 5]: reduced symptoms of ocular cataract
- development (recurrence) of ocular cataract in treated eye [3, 4]: not develop ocular cataract
- development (recurrence) of ocular cataract in treated eye [3, 5]: not develop ocular cataract

Compound: CCOC(=O)[C@H](CCc1ccccc1)N[C@@H](C)C(=O)N1CCC[C@H]1C(=O)O [enalapril]
- symptoms of ocular cataract in treated eye versus untreated eye [2, 4]: reduced symptoms of ocular cataract
- symptoms of ocular cataract in treated eye versus untreated eye [2, 5]: reduced symptoms of ocular cataract
- development (recurrence) of ocular cataract in treated eye [3, 4]: not develop ocular cataract
- development (recurrence) of ocular cataract in treated eye [3, 5]: not develop ocular cataract
